Several values for one entry are separate records, joined by “and”; a condition that tells them apart may be missing. Identical values can stand only once. Inconclusive results and toxic doses are left out. Numbered stars: 1 amine (or outer) side, 2 acyl side, 3 side chain; on linkers, the order of the positions; unused ones are H or OH. Square brackets hold non-standard residues; d marks the D form. Peptide text beside a SMILES is read from it. X21 = O=C(C1=CN(Cc2ccccc2)C=CC1N[*:1])[*:2]
Test system: P388 leukemia ip, CD2F1 mice, survival T/C
Test: NCI In Vivo Anticancer Drug Screen. Data for tumor model P388 Leukemia (intraperitoneal) in CD2F1 (CDF1) mice
Conditions: endpoint: median survival time, higher = longer survival
Outline: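 Mice carrying the transplanted tumor received test compound or vehicle. Survival was recorded in each group, and the value is the treated-group measurement divided by that of the vehicle-treated control group.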

[1] = dose: 50.0 mg/kg/injection, schedule: Q01DX005 (ip), vehicle: Klucel (hydroxypropylcellulose) (HPC)
[2] = dose: 100.0 mg/kg/injection, schedule: Q01DX005 (ip), vehicle: Klucel (hydroxypropylcellulose) (HPC)
[3] = dose: 200.0 mg/kg/injection, schedule: Q01DX005 (ip), vehicle: Klucel (hydroxypropylcellulose) (HPC)
[4] = dose: 25.0 mg/kg/injection, schedule: Q01DX009 (ip), vehicle: saline with Tween-80
[5] = dose: 50.0 mg/kg/injection, schedule: Q01DX009 (ip), vehicle: saline with Tween-80
[6] = dose: 100.0 mg/kg/injection, schedule: Q01DX009 (ip), vehicle: saline with Tween-80
[7] = dose: 200.0 mg/kg/injection, schedule: Q01DX009 (ip), vehicle: saline with Tween-80
[8] = dose: 12.5 mg/kg/injection, schedule: Q01DX009 (ip), vehicle: Klucel (hydroxypropylcellulose) (HPC)
[9] = dose: 50.0 mg/kg/injection, schedule: Q01DX009 (ip), vehicle: Klucel (hydroxypropylcellulose) (HPC)
[10] = dose: 100.0 mg/kg/injection, schedule: Q01DX009 (ip), vehicle: Klucel (hydroxypropylcellulose) (HPC)

For `COc1ccc(S(=O)(=O)N(C)/N=C/C(=O)O)cc1`, the T/C (dose: 12.5 mg/kg/injection, schedule: Q01DX005 (ip), vehicle: distilled water + Tween-80) was 100 % of control, the T/C (dose: 25.0 mg/kg/injection, schedule: Q01DX005 (ip), vehicle: distilled water + Tween-80) was 106 % of control and the T/C (dose: 50.0 mg/kg/injection, schedule: Q01DX005 (ip), vehicle: distilled water + Tween-80) was 106 % of control. For the same compound, the T/C (dose: 100.0 mg/kg/injection, schedule: Q01DX005 (ip), vehicle: distilled water + Tween-80) was 95 % of control, the T/C (dose: 200.0 mg/kg/injection, schedule: Q01DX005 (ip), vehicle: distilled water + Tween-80) was 97 % of control and the T/C (dose: 200.0 mg/kg/injection, schedule: Q01DX005 (ip), vehicle: water) was 106 % of control. The T/C (dose: 400.0 mg/kg/injection, schedule: Q01DX005 (ip), vehicle: water) was 102 % of control.
For `CC(=NCCCCCCN=C(C)c1cc(O)ccc1O)c1cc(O)ccc1O`, the T/C [1] was 92 % of control, the T/C [2] was 94 % of control and the T/C [3] was 87 % of control.
With `COc1ccc(C2NC(=O)NC2=O)cc1` (stereo not drawn) the T/C [4] was 100 % of control, the T/C [5] was 91 % of control and the T/C [6] was 93 % of control. For the same compound, the T/C [7] was 94 % of control.
`O=C1C=C(c2ccccc2)CC1` was tested, and the T/C [4] was 88 % of control, the T/C [5] was 100 % of control and the T/C [6] was 111 % of control.
For `Cc1cccc[c]1[Sn]([Cl])([O][Sn]([Cl])([c]1ccccc1C)[c]1ccccc1C)[c]1ccccc1C`, the T/C (dose: 0.19 mg/kg/injection, schedule: Q01DX005 (ip), vehicle: saline) was 110 % of control, the T/C (dose: 0.39 mg/kg/injection, schedule: Q01DX005 (ip), vehicle: saline) was 114 % of control and the T/C (dose: 1.56 mg/kg/injection, schedule: Q01DX005 (ip), vehicle: saline) was 124 % of control.
For `C=CCOc1c2c(cc3ccc(=O)oc13)CC=CO2`, the T/C [8] was 95 % of control, the T/C (dose: 25.0 mg/kg/injection, schedule: Q01DX009 (ip), vehicle: Klucel (hydroxypropylcellulose) (HPC)) was 105 % of control and the T/C [9] was 98 % of control and 100 % of control. For the same compound, the T/C [10] was 112 % of control.
With `CC1NC(=O)C(C(C)C)NC(=O)C2=CN(Cc3ccccc3)C=CC2NC(=O)C(C)NC(=O)C(C(C)C)NC(=O)C2=CN(Cc3ccccc3)C=CC2NC1=O` (stereo not drawn) (cyclo([X21]VA[X21]VA); configuration not given here) the T/C (dose: 60.0 mg/kg/injection, schedule: Q01DX005 (ip), vehicle: saline with Tween-80) was 94 % of control and the T/C (dose: 120.0 mg/kg/injection, schedule: Q01DX005 (ip), vehicle: saline with Tween-80) was 93 % of control.
In the case of `COCON=C(C)C`, the T/C (dose: 100.0 mg/kg/injection, schedule: Q01DX001 (ip), vehicle: saline) is reported as 100 % of control, the T/C (dose: 200.0 mg/kg/injection, schedule: Q01DX001 (ip), vehicle: saline) is reported as 99 % of control and the T/C (dose: 400.0 mg/kg/injection, schedule: Q01DX001 (ip), vehicle: saline) is reported as 98 % of control.
`CC[C@@]12CN3CCc4c([nH]c5ccccc45)[C@@](C(=O)OC)(c4cc5c(cc4OC)N(C=O)[C@H]4[C@@](O)(C(=O)OC)[C@H](OC(C)=O)[C@]6(CC)C=CCN7CC[C@]54[C@@H]76)C[C@H](C3=O)[C@@H]1O2` was tested, and the T/C (dose: 4.0 mg/kg/injection, schedule: Q01DX001 (ip), vehicle: water) was 113 % of control and 118 % of control, the T/C (dose: 8.0 mg/kg/injection, schedule: Q01DX001 (ip), vehicle: water) was 115 % of control and 116 % of control and the T/C (dose: 32.0 mg/kg/injection, schedule: Q01DX001 (ip), vehicle: water) was 118 % of control.
For `Cc1cnc2c(c1)CCCC2C(N)=S` (stereo not drawn), the T/C (dose: 50.0 mg/kg/injection, schedule: Q01DX009 (ip), vehicle: saline) was 99 % of control, the T/C (dose: 100.0 mg/kg/injection, schedule: Q01DX009 (ip), vehicle: saline) was 95 % of control and the T/C (dose: 200.0 mg/kg/injection, schedule: Q01DX009 (ip), vehicle: saline) was 107 % of control.
For `CCCCCC(C)N` (stereo not drawn), the T/C (dose: 12.5 mg/kg/injection, schedule: Q01DX009 (ip), vehicle: saline) was 95 % of control and the T/C (dose: 25.0 mg/kg/injection, schedule: Q01DX009 (ip), vehicle: saline) was 90 % of control.
With `COc1cc(C(=O)N2C3C4CCC(C)(OC4(C)C)C32)cc(OC)c1OC` (stereo not drawn) the T/C [1] was 95 % of control, the T/C [2] was 97 % of control and the T/C [3] was 94 % of control.
With `OC(c1cc(C(F)(F)F)nc2c(Cl)cc(Cl)cc12)C1CCCCN1` (stereo not drawn) the T/C [5] was 105 % of control and the T/C [6] was 106 % of control.
`CCCCCCCCC(=O)OCCN(CCOC(=O)CCCCCCCC)C(=O)COC(=O)CCCCCCCC` was tested, and the T/C [9] was 102 % of control, the T/C [10] was 113 % of control and the T/C (dose: 200.0 mg/kg/injection, schedule: Q01DX009 (ip), vehicle: Klucel (hydroxypropylcellulose) (HPC)) was 93 % of control.
`Cc1cc(Br)ccc1N1C(=O)CC(Sc2ccccc2N)C1=O` (stereo not drawn) was tested, and the T/C [1] was 88 % of control, the T/C [2] was 95 % of control and the T/C [3] was 100 % of control.
With `c1ccc(CCNCCN2CCNCC2)cc1` the T/C (dose: 60.0 mg/kg/injection, schedule: Q01DX005 (ip), vehicle: saline) was 108 % of control and the T/C (dose: 120.0 mg/kg/injection, schedule: Q01DX005 (ip), vehicle: saline) was 99 % of control.
In the case of `COc1cccc2c1C(=O)c1c(O)c3c(c(O)c1C2=O)C[C@@](O)(C(=O)CN1CCN(C)CC1)C[C@@H]3OC1CC(N)C(O)C(C)O1` (stereo partly drawn), the T/C (dose: 1.3 mg/kg/injection, schedule: Q01DX001 (ip), vehicle: water) is reported as 108 % of control, the T/C (dose: 1.56 mg/kg/injection, schedule: Q01DX009 (ip), vehicle: water) is reported as 115 % of control and the T/C (dose: 1.8 mg/kg/injection, schedule: Q01DX001 (ip), vehicle: water) is reported as 116 % of control. For the same compound, the T/C (dose: 2.4 mg/kg/injection, schedule: Q01DX001 (ip), vehicle: water) was 106 % of control, the T/C (dose: 3.12 mg/kg/injection, schedule: Q01DX009 (ip), vehicle: water) was 123 % of control and the T/C (dose: 3.13 mg/kg/injection, schedule: Q01DX009 (ip), vehicle: water) was 115 % of control. For the same compound, the T/C (dose: 3.2 mg/kg/injection, schedule: Q01DX001 (ip), vehicle: water) was 109 % of control, the T/C (dose: 4.2 mg/kg/injection, schedule: Q01DX001 (ip), vehicle: water) was 113 % of control and the T/C (dose: 5.6 mg/kg/injection, schedule: Q01DX001 (ip), vehicle: water) was 115 % of control. For the same compound, the T/C (dose: 6.25 mg/kg/injection, schedule: Q01DX009 (ip), vehicle: water) was 115 % of control, the T/C (dose: 7.5 mg/kg/injection, schedule: Q01DX001 (ip), vehicle: water) was 117 % of control and the T/C (dose: 10.0 mg/kg/injection, schedule: Q01DX001 (ip), vehicle: water) was 115 % of control. The T/C (dose: 12.5 mg/kg/injection, schedule: Q01DX001 (ip), vehicle: water) was 117 % of control, the T/C (dose: 18.8 mg/kg/injection, schedule: Q01DX009 (ip), vehicle: water) was 161 % of control and the T/C (dose: 25.0 mg/kg/injection, schedule: Q01DX001 (ip), vehicle: water) was 119 % of control. For the same compound, the T/C (dose: 25.0 mg/kg/injection, schedule: Q01DX009 (ip), vehicle: water) was 115 % of control and 117 % of control.
In the case of `CCOC(=O)C(Cc1ccccc1)NC(=O)N(CCCl)CCCl` (stereo not drawn), the T/C (dose: 66.0 mg/kg/injection, schedule: Q04DX003 (ip), vehicle: saline with Tween-80) is reported as 109 % of control, the T/C [6] is reported as 109 % of control and the T/C (dose: 150.0 mg/kg/injection, schedule: Q04DX003 (ip), vehicle: saline with Tween-80) is reported as 113 % of control. The T/C [7] was 122 % of control.
`O=C(Nc1ccc(C2=NCCN2)cc1)c1ccc(C(=O)Nc2ccc(C3=NCCN3)cc2)c(NC(=O)c2ccc(C(=O)Nc3cc(C(=O)Nc4ccc(C5=NCCN5)cc4)ccc3C(=O)Nc3ccc(C4=NCCN4)cc3)cc2)c1` was tested, and the T/C (dose: 25.0 mg/kg/injection, schedule: Q01DX010 (ip), vehicle: saline) was 90 % of control, the T/C (dose: 50.0 mg/kg/injection, schedule: Q01DX010 (ip), vehicle: saline) was 86 % of control and the T/C (dose: 100.0 mg/kg/injection, schedule: Q01DX010 (ip), vehicle: saline) was 100 % of control. The T/C (dose: 200.0 mg/kg/injection, schedule: Q01DX010 (ip), vehicle: saline) was 100 % of control.
With `CC([NH-])C(=O)O.CC([NH-])C(=O)O.[Cu+2]` (stereo not drawn) the T/C [8] was 99 % of control.
`CC1=CC(O)C(O)C2(C)C1CC1OC(=O)CC3C(C)C(O)C(=O)C2C13CO` (stereo not drawn) was tested, and the T/C (dose: 12.5 mg/kg/injection, schedule: Q01DX005 (ip), vehicle: saline with Tween-80) was 97 % of control, the T/C (dose: 25.0 mg/kg/injection, schedule: Q01DX005 (ip), vehicle: saline with Tween-80) was 100 % of control and the T/C (dose: 50.0 mg/kg/injection, schedule: Q01DX005 (ip), vehicle: saline with Tween-80) was 102 % of control.

— PubChem BioAssay AID330 (DTP/NCI, 2004)
